Data reported in ChEMBL document CHEMBL1148566, “Stereoselective synthesis and glycosidase inhibitory activity of 3,4-dihydroxy-pyrrolidin-2-one, 3,4-dihydroxy-piperidin-2-one and 1,2-dihydroxy-pyrrolizidin-3-one” (Bioorg Med Chem Lett, 2006).
The source made the active and inactive calls. The rule behind the calls is not given here.

What was measured:
[1] = biological target: T1, Glucoamylase 1 (Rhizopus oryzae) (UniProt P07683); assay: Inhibitory activity against amyloglucosidase in Rhizopus mold at 1 mM
T1 sequence (whole entry): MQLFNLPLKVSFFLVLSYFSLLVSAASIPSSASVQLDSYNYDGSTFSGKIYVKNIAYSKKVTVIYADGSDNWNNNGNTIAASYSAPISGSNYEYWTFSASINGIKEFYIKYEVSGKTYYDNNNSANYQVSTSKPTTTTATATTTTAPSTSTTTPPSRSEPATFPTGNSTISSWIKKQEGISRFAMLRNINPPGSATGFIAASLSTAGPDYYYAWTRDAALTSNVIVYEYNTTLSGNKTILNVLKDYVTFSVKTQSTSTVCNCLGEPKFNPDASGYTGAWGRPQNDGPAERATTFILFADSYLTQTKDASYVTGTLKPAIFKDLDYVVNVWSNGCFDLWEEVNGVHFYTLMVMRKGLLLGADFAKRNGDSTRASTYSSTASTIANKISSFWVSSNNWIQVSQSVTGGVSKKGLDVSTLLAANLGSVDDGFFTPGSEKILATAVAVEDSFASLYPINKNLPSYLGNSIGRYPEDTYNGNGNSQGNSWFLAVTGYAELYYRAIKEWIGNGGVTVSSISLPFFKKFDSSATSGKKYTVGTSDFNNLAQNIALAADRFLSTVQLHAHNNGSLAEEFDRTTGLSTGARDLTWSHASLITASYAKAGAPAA

[2] = Inhibitory activity against beta-mannosidase in Helix pomatia at 1 mM
[3] = biological target: Alpha-galactosidase (Coffea arabica) (UniProt Q5DUH8); assay: Inhibitory activity against alpha-galactosidase in coffee beans at 1 mM
[4] = biological target: T2, Alpha-galactosidase (Escherichia coli K-12) (UniProt P06720); assay: Inhibitory activity against alpha-galactosidase in Escherichia coli at 1 mM
T2 sequence (whole entry): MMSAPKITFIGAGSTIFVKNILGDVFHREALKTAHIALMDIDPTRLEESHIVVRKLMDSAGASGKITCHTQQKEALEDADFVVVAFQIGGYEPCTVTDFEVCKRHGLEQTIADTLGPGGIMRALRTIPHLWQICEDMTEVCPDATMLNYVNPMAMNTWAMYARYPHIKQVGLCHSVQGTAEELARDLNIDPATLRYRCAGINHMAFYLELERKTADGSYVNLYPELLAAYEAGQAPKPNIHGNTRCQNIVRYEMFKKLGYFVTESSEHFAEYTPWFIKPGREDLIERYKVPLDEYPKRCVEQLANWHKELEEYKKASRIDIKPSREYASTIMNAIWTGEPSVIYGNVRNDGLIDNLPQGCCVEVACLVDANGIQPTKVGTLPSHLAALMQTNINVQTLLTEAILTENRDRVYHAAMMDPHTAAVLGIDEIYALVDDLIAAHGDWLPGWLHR

[5] = biological target: Alpha-galactosidase (Oryza sativa Japonica Group) (UniProt Q9FXT4); assay: Inhibitory activity against alpha-galactosidase in rice at 1 mM
[6] = biological target: T3, Tissue alpha-L-fucosidase (Bos taurus) (UniProt Q2KIM0); assay: Inhibitory activity against alpha-L-fucosidase in bovine brain at 1 mM
T3 sequence (whole entry): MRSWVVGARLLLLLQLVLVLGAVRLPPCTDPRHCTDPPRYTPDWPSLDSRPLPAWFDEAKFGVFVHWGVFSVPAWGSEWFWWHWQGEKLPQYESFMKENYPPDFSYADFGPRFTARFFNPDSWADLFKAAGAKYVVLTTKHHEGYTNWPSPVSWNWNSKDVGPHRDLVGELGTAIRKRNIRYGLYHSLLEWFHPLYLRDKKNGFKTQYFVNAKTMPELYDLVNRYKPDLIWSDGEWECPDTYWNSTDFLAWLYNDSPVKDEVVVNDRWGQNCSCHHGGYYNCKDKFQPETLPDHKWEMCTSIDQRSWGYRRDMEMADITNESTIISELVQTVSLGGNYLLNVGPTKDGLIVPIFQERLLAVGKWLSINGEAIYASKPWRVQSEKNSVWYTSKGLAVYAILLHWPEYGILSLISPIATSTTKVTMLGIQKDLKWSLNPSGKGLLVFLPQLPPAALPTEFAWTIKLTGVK

[7] = biological target: T4, Exo-1,4-beta-xylosidase xlnD (Aspergillus niger) (UniProt O00089); assay: Inhibitory activity against beta-xylosidase in Aspergillus niger at 1 mM
T4 sequence (whole entry): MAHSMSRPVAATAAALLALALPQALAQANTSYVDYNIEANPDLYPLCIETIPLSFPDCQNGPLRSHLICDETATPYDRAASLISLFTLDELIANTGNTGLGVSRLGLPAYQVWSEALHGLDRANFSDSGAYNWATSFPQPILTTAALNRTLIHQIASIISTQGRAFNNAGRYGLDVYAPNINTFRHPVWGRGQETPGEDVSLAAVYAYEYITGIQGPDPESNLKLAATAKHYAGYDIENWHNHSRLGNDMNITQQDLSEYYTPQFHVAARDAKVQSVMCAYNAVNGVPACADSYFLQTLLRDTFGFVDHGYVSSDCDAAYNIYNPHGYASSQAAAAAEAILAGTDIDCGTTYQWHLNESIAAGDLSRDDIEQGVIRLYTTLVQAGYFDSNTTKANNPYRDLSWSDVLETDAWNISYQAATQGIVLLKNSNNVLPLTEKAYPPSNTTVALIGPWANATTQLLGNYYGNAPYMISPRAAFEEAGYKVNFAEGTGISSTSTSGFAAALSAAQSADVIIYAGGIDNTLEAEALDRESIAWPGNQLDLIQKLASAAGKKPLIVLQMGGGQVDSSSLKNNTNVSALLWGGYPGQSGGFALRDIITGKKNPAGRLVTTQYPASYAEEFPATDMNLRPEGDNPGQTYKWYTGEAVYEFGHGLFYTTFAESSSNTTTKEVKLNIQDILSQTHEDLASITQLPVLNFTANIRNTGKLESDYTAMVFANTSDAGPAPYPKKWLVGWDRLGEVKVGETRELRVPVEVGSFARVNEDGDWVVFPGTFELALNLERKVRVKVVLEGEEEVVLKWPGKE

[8] = tested on: Beta-hexosaminidase (Canavalia ensiformis); assay: Inhibitory activity against beta-N-acetylglucosaminidase in jack beans at 1 mM
Saccharomyces cerevisiae = assay: Inhibitory activity against alpha-glucosidase in yeast; conditions: concentration not given here
[9] = biological target: Glucoamylase (Aspergillus niger) (UniProt P69328); assay: Inhibitory activity against amyloglucosidase in Aspergillus niger at 1 mM
[10] = tested on: Beta-hexosaminidase (Bos taurus); assay: Inhibitory activity against beta-N-acetylglucosaminidase in bovine kidney at 1 mM
[11] = biological target: T5, Beta-galactosidase/ beta-glucuronidase (Aspergillus oryzae (strain ATCC 42149 / RIB 40)) (UniProt Q2TXB7); assay: Inhibitory activity against beta-galactosidase in Aspergillus oryzae at 1 mM
T5 sequence (whole entry): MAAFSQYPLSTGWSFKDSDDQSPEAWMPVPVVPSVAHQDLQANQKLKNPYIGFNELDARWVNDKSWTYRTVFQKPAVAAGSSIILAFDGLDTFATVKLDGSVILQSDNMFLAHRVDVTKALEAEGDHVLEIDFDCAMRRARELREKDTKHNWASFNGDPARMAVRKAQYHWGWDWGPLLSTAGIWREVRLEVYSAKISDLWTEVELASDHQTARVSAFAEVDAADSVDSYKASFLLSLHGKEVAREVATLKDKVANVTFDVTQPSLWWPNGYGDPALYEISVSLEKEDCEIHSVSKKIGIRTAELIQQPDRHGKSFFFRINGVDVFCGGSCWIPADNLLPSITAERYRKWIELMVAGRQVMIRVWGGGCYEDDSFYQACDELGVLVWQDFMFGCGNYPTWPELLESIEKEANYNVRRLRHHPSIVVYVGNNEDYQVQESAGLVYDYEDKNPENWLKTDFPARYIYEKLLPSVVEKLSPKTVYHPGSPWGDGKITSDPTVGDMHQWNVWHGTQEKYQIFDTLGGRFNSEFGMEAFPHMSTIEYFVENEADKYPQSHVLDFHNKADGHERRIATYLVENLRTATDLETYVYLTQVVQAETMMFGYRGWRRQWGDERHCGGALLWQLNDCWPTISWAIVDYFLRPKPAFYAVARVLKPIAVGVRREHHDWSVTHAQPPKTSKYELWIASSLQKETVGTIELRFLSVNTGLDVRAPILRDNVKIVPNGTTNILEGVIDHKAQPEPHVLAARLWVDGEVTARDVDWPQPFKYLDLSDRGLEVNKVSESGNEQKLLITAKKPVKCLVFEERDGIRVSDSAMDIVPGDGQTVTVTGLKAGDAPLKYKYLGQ

[12] = biological target: T6, Beta-galactosidase (Bos taurus) (UniProt Q58D55); assay: Inhibitory activity against beta-galactosidase in bovine liver at 1 mM
T6 sequence (whole entry): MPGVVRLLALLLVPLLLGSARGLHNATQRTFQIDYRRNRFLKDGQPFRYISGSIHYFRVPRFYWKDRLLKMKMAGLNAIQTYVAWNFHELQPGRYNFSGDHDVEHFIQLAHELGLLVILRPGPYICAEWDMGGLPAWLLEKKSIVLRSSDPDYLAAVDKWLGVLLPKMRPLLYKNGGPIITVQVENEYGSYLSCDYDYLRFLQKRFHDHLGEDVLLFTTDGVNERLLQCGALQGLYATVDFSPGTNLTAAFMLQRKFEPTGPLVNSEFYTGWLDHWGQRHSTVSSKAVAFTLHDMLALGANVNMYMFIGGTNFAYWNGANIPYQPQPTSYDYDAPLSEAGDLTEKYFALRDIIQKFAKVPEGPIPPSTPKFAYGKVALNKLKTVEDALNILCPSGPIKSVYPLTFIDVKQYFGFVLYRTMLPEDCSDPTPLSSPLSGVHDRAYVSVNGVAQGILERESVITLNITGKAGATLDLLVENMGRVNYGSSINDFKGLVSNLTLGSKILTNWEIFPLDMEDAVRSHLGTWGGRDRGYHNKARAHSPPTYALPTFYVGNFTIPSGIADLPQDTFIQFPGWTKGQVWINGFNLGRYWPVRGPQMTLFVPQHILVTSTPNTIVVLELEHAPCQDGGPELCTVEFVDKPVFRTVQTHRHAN

Sequence of Alpha-galactosidase (Oryza sativa Japonica Group) (Q9FXT4 whole entry): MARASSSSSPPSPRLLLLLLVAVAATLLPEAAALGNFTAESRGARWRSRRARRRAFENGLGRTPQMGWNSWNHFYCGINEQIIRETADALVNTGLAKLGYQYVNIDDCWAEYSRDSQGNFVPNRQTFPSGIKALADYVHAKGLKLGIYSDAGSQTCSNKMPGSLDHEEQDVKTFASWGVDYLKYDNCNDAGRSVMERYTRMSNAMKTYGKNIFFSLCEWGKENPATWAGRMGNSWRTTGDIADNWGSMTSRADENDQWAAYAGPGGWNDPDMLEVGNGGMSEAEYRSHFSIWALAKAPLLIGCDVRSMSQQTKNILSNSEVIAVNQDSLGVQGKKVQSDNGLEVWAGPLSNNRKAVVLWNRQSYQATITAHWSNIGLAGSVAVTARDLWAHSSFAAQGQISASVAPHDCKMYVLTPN
Sequence of Alpha-galactosidase (Coffea arabica) (Q5DUH8 as listed by the source): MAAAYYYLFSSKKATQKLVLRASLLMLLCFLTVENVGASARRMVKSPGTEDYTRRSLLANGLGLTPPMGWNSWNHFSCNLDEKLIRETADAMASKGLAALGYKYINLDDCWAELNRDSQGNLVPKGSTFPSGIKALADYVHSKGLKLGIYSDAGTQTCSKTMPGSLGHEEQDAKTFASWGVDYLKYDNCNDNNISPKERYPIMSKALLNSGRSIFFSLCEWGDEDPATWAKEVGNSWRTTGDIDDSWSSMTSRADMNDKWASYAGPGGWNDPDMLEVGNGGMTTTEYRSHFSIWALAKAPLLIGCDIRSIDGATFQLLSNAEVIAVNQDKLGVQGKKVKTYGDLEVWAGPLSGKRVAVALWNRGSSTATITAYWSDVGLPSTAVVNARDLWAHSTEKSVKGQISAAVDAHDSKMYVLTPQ
Sequence of Glucoamylase (Aspergillus niger) (P69328 whole entry): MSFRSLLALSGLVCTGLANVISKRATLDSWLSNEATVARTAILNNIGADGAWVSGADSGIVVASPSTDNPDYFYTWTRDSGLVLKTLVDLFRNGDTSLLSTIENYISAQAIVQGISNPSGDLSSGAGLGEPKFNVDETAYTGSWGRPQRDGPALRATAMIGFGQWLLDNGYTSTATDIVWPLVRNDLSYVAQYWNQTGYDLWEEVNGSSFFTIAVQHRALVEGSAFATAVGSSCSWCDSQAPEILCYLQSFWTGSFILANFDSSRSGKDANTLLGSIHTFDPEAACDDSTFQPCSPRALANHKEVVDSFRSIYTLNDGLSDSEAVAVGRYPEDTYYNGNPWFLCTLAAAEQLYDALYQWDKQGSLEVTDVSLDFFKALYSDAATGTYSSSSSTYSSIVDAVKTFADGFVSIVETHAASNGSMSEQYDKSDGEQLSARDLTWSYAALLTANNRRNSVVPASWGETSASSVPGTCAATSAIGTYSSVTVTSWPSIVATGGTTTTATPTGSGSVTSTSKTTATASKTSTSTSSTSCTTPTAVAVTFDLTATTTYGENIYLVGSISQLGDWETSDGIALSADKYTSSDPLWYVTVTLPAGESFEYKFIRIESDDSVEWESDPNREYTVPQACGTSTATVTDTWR

Activity [1] | Activity [2] | Activity [3] | Activity [4] | Activity [5] | Activity [6] | Activity [7] | Activity [8] | inhibition (Saccharomyces cerevisiae) [%] | Activity [9] | Activity [10] | Activity [11] | Activity [12] | Structure (SMILES)
inactive | inactive | inactive | inactive | inactive | inactive | inactive | inactive | 51 | inactive | inactive | inactive | inactive | CC(C)[C@@H]1NC(=O)C(C)(O)C1O (some centres not stated)
inactive | inactive | inactive | inactive | inactive | inactive | inactive | inactive | 46 | inactive | inactive | inactive | inactive | C[C@@H]1CNC(=O)C(C)(O)C1O (some centres not stated)
inactive | inactive | inactive | inactive | inactive | inactive | inactive | inactive | 48 | inactive | inactive | inactive | inactive | C[C@@H]1NC(=O)C(C)(O)C1O (some centres not stated)
inactive | inactive | inactive | inactive | inactive | inactive | inactive | inactive | 45 | inactive | inactive | inactive | inactive | CC1(O)C(=O)N2CCCC2C1O (configuration not stated)
